Measurements taken from article PMC8476002, “Bergamottin a CYP3A inhibitor found in grapefruit juice inhibits prostate cancer cell growth by downregulating androgen receptor signaling and promoting G0/G1 cell cycle block and apoptosis” (PLoS ONE, 2021).

Tests used:
Format in all cases: cell-based, human
[1] = system: cell cycle regulating proteins in MDAPCa2b cells; assay: Western blot of cell cycle regulating proteins, MDAPCa2b; conditions: for CDK2, normalized fold change after GAPDH calibration / CDK4, normalized fold change after GAPDH calibration / CDK6, normalized fold change after GAPDH calibration / Cyclin A, normalized fold change after GAPDH calibration / Cyclin B1, normalized fold change after GAPDH calibration / Cyclin D1, normalized fold change after GAPDH calibration / Cyclin D3, normalized fold change after GAPDH calibration / Cyclin E, normalized fold change after GAPDH calibration / Myt 1, normalized fold change after GAPDH calibration / P-Wee1, normalized fold change after GAPDH calibration / P-cdc2, normalized fold change after GAPDH calibration / P-histone H3, normalized fold change after GAPDH calibration / p21, normalized fold change after GAPDH calibration / p27, normalized fold change after GAPDH calibration: 48 hrs., 0 μM = 100
Procedure: Cells were plated at 25–30% confluence when maintained in complete media. When the cells required DHT tretment and media replacement to charcoal stripped serum media (CSSM) they were plated at 35–40% confluence. Bergamottin is dissolved in DMSO (vehicle control) and the amount of DMSO at each treatment group was kept constant. After the completion of the treatment cells were washed in phosphate buffer (PBS) containing 2mMEDTA and 2mM EGTA and lysed in RIPA buffer (50 mM TRIS, 150 mM NaCl, 1% NP40, 0.5% sodium deoxycholate, 0.1% SDS, 2mM EDTA, 2mM EGTA) supplemented with protease and phosphatase inhibitors for total protein isolation. Protein estimation was performed using micro BCA assay and equal protein amponts were loaded on SDS-PAGE gels for western analysis. GAPDH was used as an internal control for total protein. Infrared fluorescent-labeled secondary antibodies were used for detection using Odyssey CLx. The bands were quantified using Odyssey software, which calculates pixel density and automatically takes an area adjacent to each band for background corrections. […]

LNCaP cells [2] = assay: Cell cycle analysis (propidium iodide, flow cytometry), LNCaP
Procedure: Cell cycle analysis was performed after staining the cells with propidium iodide (PI). For long term bergamottin treatment (96 hrs.) cells were plated at 25–30% confluence and for short term bergamottin treatment (48 hrs.) they were plated at 30–35% confluence. After completion of specified treatment the cells were trypsinized washed with PBS and fixed in 70% ethanol and then stained with PI in nicoletti buffer (propidium iodide 50 μg/ml, 0.1% sodium citrate, 0.1% triton X-100, RNase 1 mg/ml, in DPBS). Cells were analyzed using C6 Accuri flow cytometer (Becton Dickinson, Mountainview, CA). FlowJo software was used to gate and remove the debris (gate on SSC and FSC) and aggregates (FL2 A and FL2H) from the analysis. Watson pragmatic and Dean-Jett -Fox methods was used to assign percentage frequencies to cells present in the different cell cycle stages.

[3] = system: PARP cleavage in LNCaP cells; assay: Western blot of PARP cleavage, LNCaP; conditions: 5 and 10 μM for 96 hrs. and 20 μM for 48 hrs.
Procedure: (§1) Cells were plated at 25–30% confluence when maintained in complete media. When the cells required DHT tretment and media replacement to charcoal stripped serum media (CSSM) they were plated at 35–40% confluence. Bergamottin is dissolved in DMSO (vehicle control) and the amount of DMSO at each treatment group was kept constant. After the completion of the treatment cells were washed in phosphate buffer (PBS) containing 2mMEDTA and 2mM EGTA and lysed in RIPA buffer (50 mM TRIS, 150 mM NaCl, 1% NP40, 0.5% sodium deoxycholate, 0.1% SDS, 2mM EDTA, 2mM EGTA) supplemented with protease and phosphatase inhibitors for total protein isolation. Protein estimation was performed using micro BCA assay and equal protein amponts were loaded on SDS-PAGE gels for western analysis. GAPDH was used as an internal control for total protein. Infrared fluorescent-labeled secondary antibodies were used for detection using Odyssey CLx. The bands were quantified using Odyssey software, which calculates pixel density and automatically takes an area adjacent to each band for background corrections.
Cells were plated in complete media without antibiotics on poly D-lysine-coated plates (80,000 cells per 6 well). […]

PSA in MDAPCa2b cells = assay: Western blotting of PSA, MDAPCa2b; conditions: 10μM, 96 hours
Procedure: as §1

LNCaP cells [4] = assay: TUNEL apoptosis detection assay, LNCaP; conditions: 10μM, 4 days
Procedure: To detect apoptosis in the cells after bergamottin treatment In Situ cell death detection kit from Sigma-Aldrich (St. Louis, MO) was used. This apoptosis detection kit fluorescently labels the single and double-stranded DNA breaks caused due to apoptosis using terminal deoxynucleotidyl transferase (TUNEL-reaction). The cells were plated in poly- D- lysine coated 35 mm Glass bottom dish (Cellvis catalog# D35C4-20-1.5-N), treated with bergamottin for the specified time, and dosage and then stained with the kit reagents. The kit recommended protocol was followed. After the staining, the confocal microscope was used to procure images of the cells. The TUNEL assay preferentially labels apoptosis in comparison to necrosis and positive apoptosis is recognized when cells incorporate fluorescent labelled nucleotide (Ex 450 to 500nm and Em 515 to 565-green).

In the case of `CC(C)=CCC/C(C)=C/COc1c2ccoc2cc2oc(=O)ccc12` [bergamottin], the “CDK2, normalized fold change after GAPDH calibration” value ([1]; Bergamottin 20 μM) is reported as 63, the “CDK4, normalized fold change after GAPDH calibration” value ([1]; Bergamottin 20 μM) is reported as 90 and the “CDK6, normalized fold change after GAPDH calibration” value ([1]; Bergamottin 20 μM) is reported as 108. For the same compound, the “Cyclin A, normalized fold change after GAPDH calibration” value ([1]; Bergamottin 20 μM) was 86, the “Cyclin B1, normalized fold change after GAPDH calibration” value ([1]; Bergamottin 20 μM) was 52 and the “Cyclin D1, normalized fold change after GAPDH calibration” value ([1]; Bergamottin 20 μM) was 106. For the same compound, the “Cyclin D3, normalized fold change after GAPDH calibration” value ([1]; Bergamottin 20 μM) was 55, the “Cyclin E, normalized fold change after GAPDH calibration” value ([1]; Bergamottin 20 μM) was 120 and the “Myt 1, normalized fold change after GAPDH calibration” value ([1]; Bergamottin 20 μM) was 259. For the same compound, the “P-Wee1, normalized fold change after GAPDH calibration” value ([1]; Bergamottin 20 μM) was 80, the “P-cdc2, normalized fold change after GAPDH calibration” value ([1]; Bergamottin 20 μM) was 14 and the “P-histone H3, normalized fold change after GAPDH calibration” value ([1]; Bergamottin 20 μM) was 130. The “p21, normalized fold change after GAPDH calibration” value ([1]; Bergamottin 20 μM) was 139, the “p27, normalized fold change after GAPDH calibration” value ([1]; Bergamottin 20 μM) was 158 and the “CDK2, normalized fold change after GAPDH calibration” value ([1]; Bergamottin 30 μM) was 77. The “CDK4, normalized fold change after GAPDH calibration” value ([1]; Bergamottin 30 μM) was 81, the “CDK6, normalized fold change after GAPDH calibration” value ([1]; Bergamottin 30 μM) was 98 and the “Cyclin A, normalized fold change after GAPDH calibration” value ([1]; Bergamottin 30 μM) was 58. For the same compound, the “Cyclin B1, normalized fold change after GAPDH calibration” value ([1]; Bergamottin 30 μM) was 42, the “Cyclin D1, normalized fold change after GAPDH calibration” value ([1]; Bergamottin 30 μM) was 110 and the “Cyclin D3, normalized fold change after GAPDH calibration” value ([1]; Bergamottin 30 μM) was 49. The “Cyclin E, normalized fold change after GAPDH calibration” value ([1]; Bergamottin 30 μM) was 87, the “Myt 1, normalized fold change after GAPDH calibration” value ([1]; Bergamottin 30 μM) was 451 and the “P-Wee1, normalized fold change after GAPDH calibration” value ([1]; Bergamottin 30 μM) was 87. The “P-cdc2, normalized fold change after GAPDH calibration” value ([1]; Bergamottin 30 μM) was 15, the “P-histone H3, normalized fold change after GAPDH calibration” value ([1]; Bergamottin 30 μM) was 152 and the “p21, normalized fold change after GAPDH calibration” value ([1]; Bergamottin 30 μM) was 126. The “p27, normalized fold change after GAPDH calibration” value ([1]; Bergamottin 30 μM) was 143, the “CDK4 level (western blot)” value ([1]; low dose 5 and 10 μM, 96 hrs.) was “did not observe any significant change” and the “CDK6 level (western blot)” value ([1]; low dose 5 and 10 μM, 96 hrs.) was “did not observe any significant change”. The “cdc-2 phosphorylation (western blot)” value ([1]; low dose 5 and 10 μM, 96 hrs.) was “Decreased cdc-2 phosphorylation”, the “cyclin B1 level (western blot)” value ([1]; low dose 5 and 10 μM, 96 hrs.) was “lower” and the “cyclin D3 level (western blot)” value ([1]; low dose 5 and 10 μM, 96 hrs.) was “lower”. The “G1 frequency, Dean-Jett-Fox” value (LNCaP cells [2]; Berg 5μM, 96 hrs.) was 90.81 ±1.7%, the “G2 frequency, Dean-Jett-Fox” value (LNCaP cells [2]; Berg 5μM, 96 hrs.) was 10.53 ±1.0% and the “G2 frequency, Watson Pragmatic” value (LNCaP cells [2]; Berg 5μM, 96 hrs.) was 8.59 ±3.0%. For the same compound, the “S frequency, Dean-Jett-Fox” value (LNCaP cells [2]; Berg 5μM, 96 hrs.) was -0.3 ±2.3%, the “S frequency, Watson Pragmatic” value (LNCaP cells [2]; Berg 5μM, 96 hrs.) was 0.32±4.3% and the “G1 frequency, Dean-Jett-Fox” value (LNCaP cells [2]; Berg 10μM, 96 hrs.) was 95.1 ±3.4%. For the same compound, the “G2 frequency, Dean-Jett-Fox” value (LNCaP cells [2]; Berg 10μM, 96 hrs.) was 0.22 ±0.4%, the “G2 frequency, Watson Pragmatic” value (LNCaP cells [2]; Berg 10μM, 96 hrs.) was 10.07 ±0.9% and the “S frequency, Dean-Jett-Fox” value (LNCaP cells [2]; Berg 10μM, 96 hrs.) was -0.03 ±1.1%. The “S frequency, Watson Pragmatic” value (LNCaP cells [2]; Berg 10μM, 96 hrs.) was -1.17 ±4.5%, the “G1 frequency, Dean-Jett-Fox” value (LNCaP cells [2]; Berg 20μM, 48 hrs.) was 86.7 ±2.3% and the “G2 frequency, Dean-Jett-Fox” value (LNCaP cells [2]; Berg 20μM, 48 hrs.) was 15.3 ±1.0%. For the same compound, the “G2 frequency, Watson Pragmatic” value (LNCaP cells [2]; Berg 20μM, 48 hrs.) was 13.4 ±4.3%, the “S frequency, Dean-Jett-Fox” value (LNCaP cells [2]; Berg 20μM, 48 hrs.) was -9.8 ±3.0% and the “S frequency, Watson Pragmatic” value (LNCaP cells [2]; Berg 20μM, 48 hrs.) was 4.8 ±3.5%. The “G1 frequency, Dean-Jett-Fox” value (LNCaP cells [2]; Berg 30μM, 48 hrs.) was 96.2 ±3.6%, the “G2 frequency, Dean-Jett-Fox” value (LNCaP cells [2]; Berg 30μM, 48 hrs.) was 7.7 ±0.9% and the “G2 frequency, Watson Pragmatic” value (LNCaP cells [2]; Berg 30μM, 48 hrs.) was 6.3 ±2.3%. The “S frequency, Dean-Jett-Fox” value (LNCaP cells [2]; Berg 30μM, 48 hrs.) was -8.4 ±4.5%, the “S frequency, Watson Pragmatic” value (LNCaP cells [2]; Berg 30μM, 48 hrs.) was 3.7 ±2.6% and the PARP cleavage [3] was “showed apoptosis (cleaved PARP)”. For the same compound, the PSA levels (PSA in MDAPCa2b cells) was “significantly reduced PSA levels” and the “DNA breaks (TUNEL, apoptosis)” value (LNCaP cells [4]) was “increased DNA breaks”.
